In patent publication US9512141B2, “Pyrazine derivatives as CB2 receptor agonists” (Hoffmann-La Roche Inc., priority 2012, dated 2016):
pEC50: −log10 of the molar value.

Assays:
[1] = molecular target: human CB2 receptors (Homo sapiens (Human), UniProt P34972); assay: cAMP assay (functional), CHO cells expressing human CB2 receptors; format: cell-based; conditions: functional cAMP assay, CHO cells expressing human CB2; read-out: human CB2 EC50
Method: (§1) CHO cells expressing human CB1 or CB2 receptors are seeded 17-24 hours prior to the experiment 50.000 cells per well in a black 96 well plate with flat clear bottom (Corning Costar #3904) in DMEM (Invitrogen No. 31331), 1×HT supplement, with 10% fetal calf serum and incubated at 5% CO2 and 37° C. in a humidified incubator. The growth medium was exchanged with Krebs Ringer Bicarbonate buffer with 1 mM IBMX and incubated at 30° C. for 30 min. Compounds were added to a final assay volume of 100 μl and incubated for 30 min at 30° C. Using the cAMP-Nano-TRF detection kit the assay (Roche Diagnostics) was stopped by the addition of 50 μl lysis reagent (Tris, NaCl, 1.5% Triton X100, 2.5% NP40, 10% NaN3) and 50 μl detection solutions (20 μM mAb Alexa700-cAMP 1:1, and 48 μM Ruthenium-2-AHA-cAMP) and shaken for 2 h at room temperature. The time-resolved energy transfer is measured by a TRF reader (Evotec Technologies GmbH), equipped with a ND:YAG laser as excitation source. The plate is measured twice with the excitation at 355 nm and at the emission with a delay of 100 ns and a gate of 100 ns, total exposure time 10 s at 730 (bandwidth 30 nm) or 645 nm (bandwidth 75 nm), respectively. The FRET signal is calculated as follows: FRET=T730-Alexa730-P (T645-B645) with P=Ru730-B730/Ru645-B645, where T730 is the test well measured at […], T645 is the test well measured at 645 nm, B730 and B645 are the buffer controls at 730 nm and 645 nm, respectively. cAMP content is determined from the function of a standard curve spanning from 10 μM to 0.13 nM cAMP.
(§2) EC50 values were determined using Activity Base analysis (ID Business Solution, Limited). The EC50 values for a wide range of cannabinoid agonists generated from this assay were in agreement with the values published in the scientific literature.

[2] = molecular target: human CB1 receptors (Homo sapiens (Human), UniProt P21554); assay: cAMP assay (functional), CHO cells expressing human CB1 receptors; format: cell-based; conditions: functional cAMP assay, CHO cells expressing human CB1; read-out: human CB1 EC50
Method: as §1, §2

Chain of human CB2 receptors (P34972 whole entry): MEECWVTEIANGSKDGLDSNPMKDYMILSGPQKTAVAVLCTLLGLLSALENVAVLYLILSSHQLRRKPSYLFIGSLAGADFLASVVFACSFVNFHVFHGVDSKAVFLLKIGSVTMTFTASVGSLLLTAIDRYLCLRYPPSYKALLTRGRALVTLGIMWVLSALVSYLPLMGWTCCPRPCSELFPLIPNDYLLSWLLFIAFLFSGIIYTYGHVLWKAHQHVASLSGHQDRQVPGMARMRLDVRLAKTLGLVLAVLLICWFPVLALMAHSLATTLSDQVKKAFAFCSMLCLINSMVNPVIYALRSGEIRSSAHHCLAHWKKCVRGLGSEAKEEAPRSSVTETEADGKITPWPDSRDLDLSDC
Chain of human CB1 receptors (P21554 whole entry): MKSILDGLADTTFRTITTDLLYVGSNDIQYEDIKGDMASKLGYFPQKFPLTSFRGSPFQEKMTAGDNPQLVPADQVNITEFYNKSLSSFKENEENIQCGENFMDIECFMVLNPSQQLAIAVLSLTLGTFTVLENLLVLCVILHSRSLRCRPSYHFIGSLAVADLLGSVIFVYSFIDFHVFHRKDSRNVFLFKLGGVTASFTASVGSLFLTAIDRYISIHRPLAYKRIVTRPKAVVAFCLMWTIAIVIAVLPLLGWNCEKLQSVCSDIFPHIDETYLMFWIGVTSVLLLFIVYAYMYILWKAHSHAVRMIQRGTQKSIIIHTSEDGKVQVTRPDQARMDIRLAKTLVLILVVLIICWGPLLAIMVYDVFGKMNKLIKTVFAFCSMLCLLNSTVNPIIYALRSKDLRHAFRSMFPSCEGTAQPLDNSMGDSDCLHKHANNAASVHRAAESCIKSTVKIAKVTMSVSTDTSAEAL

Compound	pEC50 [1]	pEC50 [2]
NC(=O)C1CCCCN1C(=O)c1cnc(N2CC(F)(F)C2)c(OCC2CC2)n1 (single isomer, unassigned; (-)) [Example 36, (−)-1-[6-Cyclopropylmethoxy-5-(3,3-difluoro-azetidin-1-yl)-pyrazine-2-carbonyl]-piperidine-2-carboxylic acid amide]	6.66	< 5.00
O=C(c1cnc(C2CC2)c(OCC2CC2)n1)N1CCOCC12CC2 [Example 17, (5-Cyclopropyl-6-cyclopropylmethoxy-pyrazin-2-yl)-(7-oxa-4-aza-spiro[2.5]oct-4-yl)-methanone]	6.85	< 5.00
CC1(C)CC(C(N)=O)N(C(=O)c2cnc(C3CC3)c(OCC3CC3)n2)C1 (centres unmarked) [Example 34, 1-(5-Cyclopropyl-6-cyclopropylmethoxy-pyrazine-2-carbonyl)-4,4-dimethyl-pyrrolidine-2-carboxylic acid amide]	8.80	< 5.00
CN(C)C(=S)[C@H]1CCCN1C(=O)c1cnc(N2CC(F)(F)C2)c(OCC2CC2)n1 [Example 24, (R)-1-[6-Cyclopropylmethoxy-5-(3,3-difluoro-azetidin-1-yl)-pyrazine-2-carbonyl]-pyrrolidine-2-carbothioic acid dimethylamide]	6.48	< 5.00
O=C(c1cnc(N2CC(F)(F)C2)c(OCC2CC2)n1)N1CCN(CCO)CC1 [Example 20, [6-Cyclopropylmethoxy-5-(3,3-difluoro-azetidin-1-yl)-pyrazin-2-yl]-[4-(2-hydroxy-ethyl)-piperazin-1-yl]-methanone]	6.50	< 5.00
O=C(c1cnc(N2CC(F)(F)C2)c(OCC2CC2)n1)N1CCC2(COC2)C1 [Example 28, [6-Cyclopropylmethoxy-5-(3,3-difluoro-azetidin-1-yl)-pyrazin-2-yl]-(2-oxa-6-aza-spiro[3.4]oct-6-yl)-methanone]	6.69	< 5.00
COCC(C)(C)N(C)C(=O)c1cnc(N2CC(F)(F)C2)c(OCC2CC2)n1 [Example 12, 6-Cyclopropylmethoxy-5-(3,3-difluoro-azetidin-1-yl)-pyrazine-2-carboxylic acid (2-methoxy-1,1-dimethyl-ethyl)-methyl-amide]	8.04	< 5.00
CN(C(=O)c1cnc(N2CC(F)(F)C2)c(OCC(F)(F)F)n1)C(C)(C)C [Example 31, 5-(3,3-Difluoro-azetidin-1-yl)-6-(2,2,2-trifluoro-ethoxy)-pyrazine-2-carboxylic acid tert-butyl-methyl-amide]	6.89	< 5.00
O=C1CN(C(=O)c2cnc(N3CC(F)(F)C3)c(OCC3CC3)n2)CCO1 [Example 23, 4-[6-Cyclopropylmethoxy-5-(3,3-difluoro-azetidin-1-yl)-pyrazine-2-carbonyl]-morpholin-2-one]	7.74	< 5.00
O=C(c1cnc(N2CC(F)(F)C2)c(OCC2CC2)n1)N1CC2CC1CO2 (centres unmarked) [Example 6, [6-Cyclopropylmethoxy-5-(3,3-difluoro-azetidin-1-yl)-pyrazin-2-yl]-2-oxa-5-aza-bicyclo[2.2.1]hept-5-yl-methanone]	6.59	< 5.00
NC(=O)[C@@H]1CC(F)(F)CN1C(=O)c1cnc(N2CC(F)(F)C2)c(OCC2CC2)n1 [Example 19, (S)-1-[6-Cyclopropylmethoxy-5-(3,3-difluoro-azetidin-1-yl)-pyrazine-2-carbonyl]-4,4-difluoro-pyrrolidine-2-carboxylic acid amide]	8.24	< 5.00
C[C@@H]1CCCN1C(=O)c1cnc(C2CC2)c(OCC2CC2)n1 [Example 1, (5-Cyclopropyl-6-cyclopropylmethoxy-pyrazin-2-yl)-((R)-2-methyl-pyrrolidin-1-yl)-methanone]	7.24	< 5.00
C[C@H]1CCCN1C(=O)c1cnc(N2CC(F)(F)C2)c(OCC2CC2)n1 [Example 5, [6-Cyclopropylmethoxy-5-(3,3-difluoro-azetidin-1-yl)-pyrazin-2-yl]-((S)-2-methyl-pyrrolidin-1-yl)-methanone]	7.09	< 5.00
O=C(c1cnc(N2CC(F)(F)C2)c(OCC2CC2)n1)N1CC(F)(F)C(F)(F)C1 [Example 30, [6-Cyclopropylmethoxy-5-(3,3-difluoro-azetidin-1-yl)-pyrazin-2-yl]-(3,3,4,4-tetrafluoro-pyrrolidin-1-yl)-methanone]	7.58	< 5.00
NC(=O)[C@@H]1CC(F)(F)CN1C(=O)c1cnc(N2CC(F)(F)C2)c(OCC(F)F)n1 [Example 42, (2S)-1-[5-(3,3-Difluoroazetidin-1-yl)-6-(2,2-difluoroethoxyl)pyrazine-2-carbonyl]-4,4-difluoro-pyrrolidine-2-carboxamide]	6.51	< 5.00
CC(=O)OC1(C)CCN(C(=O)c2cnc(N3CC(F)(F)C3)c(OCC3CC3)n2)C1 (centres unmarked) [Example 29, Acetic acid 1-[6-cyclopropylmethoxy-5-(3,3-difluoro-azetidin-1-yl)-pyrazine-2-carbonyl]-3-methyl-pyrrolidin-3-yl ester]	8.06	< 5.00
